Patent publication EP4772507A1, “AZAINDOLE COMPOUND AND MEDICAL DRUG” (Nippon Shinyaku Co., Ltd., priority 2023, dated 2025)

How the values were obtained:
[1] = system: HEK293/API2-MALT1/NF-κB reporter cells; assay: Inhibition of reporter activity in HEK293/API2-MALT1/NF-κB reporter cells; type: cell-based; settings: Homo sapiens, 24 hours with test substance, One-glo luminescence
Protocol: The API2-MALT1 fusion protein, expressed in MALT lymphoma, is known to constitutively activate the NF-κB pathway. To evaluate the inhibitory effect of the test substance on the NF-κB pathway in cells, a reporter activity inhibition test was conducted using HEK293/API2-MALT1/NF-κB reporter cells.
(§1) The test substance was prepared at a concentration of 10 mM in dimethyl sulfoxide (DMSO) and further diluted with DMSO to each of concentrations of 1000, 300, 100, and 10 µM. The solutions were further diluted 100-fold with DMEM medium containing 10% FBS to prepare test substance solutions.
HEK293/API2-MALT1/NF-κB reporter cells and 293T/CMV reporter cells (used as a negative control) were cultured in DMEM medium containing 10% FBS. Into a 384-well plate (#781080, Greiner), 6,000 cells were seeded in 30 µL per well, and after culturing for 24 hours, 3.3 µL of the adjusted test substance solution was added thereto (final concentrations: 10,000, 1,000, 100, and 10 nM). After culturing for 24 hours at 37°C in a 5% CO2 incubator, 33 µL of One-glo (Promega) was added to each well. After a 5-minute incubation at room temperature, luminescence was detected using a microplate reader (EnVision, PerkinElmer).
Using the measurement data, non-linear regression analysis was performed with the SAS system (SAS Institute Inc.) to estimate IC50.

[2] = system: OCI-Ly3 cell lines; assay: Proliferation inhibition test, ABC-DLBCL cell line OCI-Ly3; type: cell-based; settings: Homo sapiens; OCI-Ly3 (ABC-DLBCL, NF-κB pathway-dependent); 96 hours; Cell Counting Kit-8; read-out: Proliferation inhibitory activity against OCI-Ly3 IC50
Protocol: (§2) In ABC-DLBCL cell lines, the NF-κB pathway is constitutively activated due to mutations in the B-cell receptor pathway. To evaluate the proliferation inhibitory activity associated with the MALT1 inhibitory activity of the test substance, a proliferation inhibition test was conducted using ABC-DLBCL cell lines.
as §1, with “3,000, 1,000,” for “1000,”, “100, 30,” for “100,”, “IMDM” for “DMEM”
(§3) OCI-Ly3 cell lines (ABC-DLBCL, NF-κB pathway-dependent) were cultured in IMDM containing 10% FBS, and SU-DHL-4 cell lines (GCB-DLBCL, NF-κB pathway-independent, used as a negative control) were cultured in RPMI-1640 containing 10% FBS. Into a 96-well plate, 2,000 cells of the OCI-Ly3 cell line and 4,000 cells of the SU-DHL-4 cell line were seeded in 100 µL per well, and 11 µL of the adjusted test substance solution was added thereto (final concentrations: 10,000, 3,000, 1,000, 300, 100, 30, and 10 nM). After 96 hours of incubation at 37°C in a 5% CO2 incubator, 10 µL of Cell Counting Kit-8 (Dojindo Laboratories) was added to each well. After 4 hours of incubation at 37°C, absorbance at 450 nm was detected using a microplate reader (EnVision, PerkinElmer).
(§4) Using the measurement data, non-linear regression analysis based on a 2-parameter logistic model was performed with Spotfire (PerkinElmer) to estimate IC50 values.

[3] = biological target: T1, C-terminal catalytic domain of MALT1 (amino acid residues 329-824) (Homo sapiens, UniProt Q9UDY8); assay: MALT1 protease inhibitory activity (enzyme activity inhibition assay, fluorogenic substrate); type: biochemical; settings: substrate Ac-Leu-Arg-Ser-Arg-AMC 50 µM; 30°C for 2 hours; fluorescence
T1 construct: C-terminal catalytic domain of MALT1 (amino acid residues 329-824)
T1 sequence (Q9UDY8 329-824): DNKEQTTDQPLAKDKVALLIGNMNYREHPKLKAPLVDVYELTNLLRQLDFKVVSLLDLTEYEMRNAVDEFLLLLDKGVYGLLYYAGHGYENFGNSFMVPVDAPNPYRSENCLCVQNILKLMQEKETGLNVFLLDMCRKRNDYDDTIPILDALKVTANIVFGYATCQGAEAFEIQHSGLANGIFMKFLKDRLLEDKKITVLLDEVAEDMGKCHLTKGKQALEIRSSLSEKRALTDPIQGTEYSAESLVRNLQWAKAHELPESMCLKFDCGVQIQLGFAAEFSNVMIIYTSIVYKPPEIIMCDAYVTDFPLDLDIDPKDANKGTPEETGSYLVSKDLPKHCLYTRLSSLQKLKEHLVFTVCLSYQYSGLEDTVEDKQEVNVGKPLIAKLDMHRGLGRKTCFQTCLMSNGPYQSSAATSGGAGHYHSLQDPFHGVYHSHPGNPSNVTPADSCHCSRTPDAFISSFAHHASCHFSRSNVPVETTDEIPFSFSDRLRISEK
Protocol: To evaluate the enzyme inhibitory activity of a test substance against MALT1, an enzyme activity inhibition assay was conducted using the C-terminal catalytic domain of MALT1 (amino acid residues 329-824).
A test substance was prepared at a concentration of 10 mM in dimethyl sulfoxide (DMSO) and further diluted with DMSO to obtain final concentrations of 1000, 100, 10, 1, and 0.1 µM. The solutions were further diluted 25-fold with an assay buffer to prepare final test substance solutions. The composition of the assay buffer was 200 mM Tris/HCl HEPES (pH 7.5), 0.8 M Na citrate, 100 µM DTT, and 0.05% CHAPS.
The test substance solution was added to a 384-well black plate (#6007270, PerkinElmer) in an amount of 5 µL per well (n = 2; final concentrations of 10000, 1000, 100, 10, 1, and 0.1 nM), followed by the addition of 10 µL of MALT1 enzyme and finally 5 µL of a substrate solution (Ac-Leu-Arg-Ser-Arg-AMC, Peptide Institute, Inc.; final concentration in the reaction mixture: 50 µM), and after stirring, the mixture was allowed to react at 30°C for 2 hours. Fluorescence (excitation: 380 nm, emission: 460 nm) was detected using a microplate reader (EnVision, PerkinElmer).
Using the measurement data, non-linear regression analysis based on a 2-parameter logistic model was performed with Spotfire (PerkinElmer) to calculate IC50.

[4] = Central nervous system (CNS) penetration study in mice; type: in vivo; settings: female, BALB/cCrSlc, mouse, ip, 30 mg/kg intraperitoneally, three hours later, cerebrum and plasma by LC-MS/MS, read-out: Brain-to-plasma concentration ratio (Kp value)
Protocol: To evaluate the central nervous system (CNS) penetration of a test substance, a central nervous system penetration study was conducted using mice.
Six-week-old female BALB/cCrSlc mice (Japan SLC) were used. The test substance suspended in 0.5% methylcellulose was intraperitoneally administered to mice at a dose of 30 mg/kg. Three hours later, blood was collected from the abdominal vena cava under isoflurane anesthesia, and plasma was obtained by centrifugation. After exsanguination from the abdominal vena cava, the cerebrum was collected.
The drug concentrations of the collected plasma and cerebrum were measured by LC-MS/MS. To determine the brain penetration of the drug, the brain-to-plasma concentration ratio (Kp value) was calculated.

[5] = system: SU-DHL-4 cell lines; assay: Proliferation inhibition test, GCB-DLBCL cell line SU-DHL-4 (negative control line); type: cell-based; settings: Homo sapiens; SU-DHL-4 (GCB-DLBCL, NF-κB pathway-independent, negative control); 96 hours; Cell Counting Kit-8; read-out: Proliferation inhibitory activity against SU-DHL-4 IC50
Protocol: as §2
as §1, with “3,000, 1,000,” for “1000,”, “100, 30,” for “100,”, “IMDM” for “DMEM”
as §3, §4

| IC50 [2] [nM] | IC50 [3] [nM] | Kp at 3 h [4] | IC50 [5] [nM] | SMILES | IC50 [1] [nM] |
| --- | --- | --- | --- | --- | --- |
| 620 | 45 | 1.6 | 5400 | C[C@@H]1CC(C(=O)c2cn(C3COC3)c3nc(-n4nccn4)c(Cl)cc23)C[C@@H](C)N1c1ncc(F)cc1I (stereo partly drawn) [Example 1, [5-chloro-1-(oxetan-3-yl)-6-(2H-1,2,3-triazol-2-yl)-1H-pyrrolo[2,3-b]pyridin-3-yl][(2R,6R)-1-(5-fluoro-3-iodopyridin-2-yl)-2,6-dimethylpiperidin-4-yl]methanone] | 170 |
| 720 | 310 | 0.28 | 9700 | C[C@@H]1CC(C(=O)c2cn(C3CC3)c3nc(-n4nccn4)c(Cl)cc23)C[C@@H](C)N1c1ncc(F)cc1I (stereo partly drawn) [Example 16, [5-chloro-1-cyclopropyl-6-(2H-1,2,3-triazol-2-yl)-1H-pyrrolo[2,3-b]pyridin-3-yl][(2R,6R)-1-(5-fluoro-3-iodopyridin-2-yl)-2,6-dimethylpiperidin-4-yl]methanone] | – |
| 440 | 19 | – | 9000 | O=C(c1cnn(-c2cncc3sccc23)c1C(F)(F)F)c1cn(C2COC2)c2nc(-n3nccn3)c(Cl)cc12 [Example 25, [5-chloro-1-(oxetan-3-yl)-6-(2H-1,2,3-triazol-2-yl)-1H-pyrrolo[2,3-b]pyridin-3-yl][1-(thieno[2,3-c]pyridin-4-yl)-5-(trifluoromethyl)-1H-pyrazol-4-yl]methanone] | 180 |
| 870 | 44 | – | > 10000 | O=C(c1cnn(-c2cccc3c(=O)[nH]ccc23)c1C(F)(F)F)c1cn(C2CCC2)c2nc(-n3nccn3)c(Cl)cc12 [Example 30, 5-{4-[5-chloro-1-cyclobutyl-6-(2H-1,2,3-triazol-2-yl)-1H-pyrrolo[2,3-b]pyridine-3-carbonyl]-5-(trifluoromethyl)-1H-pyrazol-1-yl}isoquinolin-1(2H)-one] | 500 |

The remaining lines, values behind:

| SMILES | IC50 [2] [nM] | IC50 [3] [nM] | Kp at 3 h [4] | IC50 [5] [nM] | IC50 [1] [nM] |
| --- | --- | --- | --- | --- | --- |
| Cn1cc(C(=O)c2cnn(-c3ccnc4sccc34)c2C(F)(F)F)c2cc(Cl)c(-n3nccn3)nc21 [Example 24, [5-chloro-1-methyl-6-(2H-1,2,3-triazol-2-yl)-1H-pyrrolo[2,3-b]pyridin-3-yl][1-(thieno[2,3-b]pyridin-4-yl)-5-(trifluoromethyl)-1H-pyrazol-4-yl]methanone] | 180 | 12 | – | 9100 | 130 |
| Cn1cc(C(=O)c2cnn(-c3cccn4nccc34)c2C(F)(F)F)c2cc(Cl)c(-n3nccn3)nc21 [Example 27, [5-chloro-1-methyl-6-(2H-1,2,3-triazol-2-yl)-1H-pyrrolo[2,3-b]pyridin-3-yl][1-(pyrazolo[1,5-a]pyridin-4-yl)-5-(trifluoromethyl)-1H-pyrazol-4-yl]methanone] | 380 | 5.8 | – | 7200 | 280 |
| Cn1cc(C(=O)c2cnn(-c3cccn4c(=O)cccc34)c2C(F)(F)F)c2cc(Cl)c(-n3nccn3)nc21 [Example 31, 9-{4-[5-chloro-1-methyl-6-(2H-1,2,3-triazol-2-yl)-1H-pyrrolo[2,3-b]pyridine-3-carbonyl]-5-(trifluoromethyl)-1H-pyrazol-1-yl}-4H-quinolizin-4-one] | 150 | 25 | – | > 10000 | 73 |
| COc1nc2c(cc1Cl)c(C(=O)c1cnn(-c3cncc4c(F)cccc34)c1C(F)(F)F)cn2C [Example 32, (5-chloro-6-methoxy-1-methyl-1H-pyrrolo[2,3-b]pyridin-3-yl)[1-(8-fluoroisoquinolin-4-yl)-5-(trifluoromethyl)-1H-pyrazol-4-yl]methanone] | 140 | 54 | – | > 10000 | 280 |
